Assay: xn = mol fraction of the nth substance listed

CC(O)CC(C)(C)O (configuration not stated) + Cc1ccccc1
viscosity [mPa·s], 101 kPa
Conditions	x1 = 0.1346	x1 = 0.1954	x1 = 0.2938	x1 = 0.3816	x1 = 0.4929	x1 = 0.5952	x1 = 0.6969	x1 = 0.7998	x1 = 0.8958
308.15 K	0.6243	0.7011	0.8906	1.182	1.708	2.106	3.293	5.905	9.863
318.15 K	0.4797	0.5572	0.739	0.983	1.41	1.753	2.719	4.872	8.571

Nc1ccccc1Cl + CCCCO
viscosity [mPa·s], 101 kPa
Conditions	x1 = 0.0883	x1 = 0.1789	x1 = 0.2719	x1 = 0.3675	x1 = 0.4656	x1 = 0.5666	x1 = 0.6703	x1 = 0.7771	x1 = 0.8869
303.15 K	2.47	2.66	2.83	3	3.16	3.31	3.44	3.57	3.69
308.15 K	2.21	2.39	2.55	2.71	2.85	2.98	3.1	3.22	3.32
313.15 K	1.98	2.16	2.31	2.45	2.58	2.7	2.82	2.92	3
318.15 K	1.79	1.96	2.1	2.23	2.35	2.46	2.57	2.67	2.74

O=S(=O)(Cl)Cl + Cc1cc(C)cc(C)c1
298.15 K, 101 kPa
Conditions	viscosity [mPa·s]
x1 = 0.172	0.6735
x1 = 0.323	0.6885
x1 = 0.515	0.6997
x1 = 0.645	0.7028
x1 = 0.669	0.7025
x1 = 0.804	0.6976

CC(O)CC(C)(C)O (configuration not stated) + CN(C)c1ccccc1
viscosity [mPa·s], 101 kPa
Conditions	x1 = 0.0947	x1 = 0.1893	x1 = 0.2866	x1 = 0.3878	x1 = 0.4988	x1 = 0.5875	x1 = 0.6895	x1 = 0.7899	x1 = 0.8859
308.15 K	1.042	1.107	1.216	1.395	1.761	2.037	2.999	5.285	9.275
318.15 K	0.8643	0.9274	1.015	1.185	1.416	1.688	2.505	4.534	8.117

C[N+](C)(C)CCO.O=C1O[C@H]([C@@H](O)CO)C([O-])=C1O + O
viscosity [mPa·s], 100 kPa
Conditions	x1 = 0.001102	x1 = 0.001323	x1 = 0.001802	x1 = 0.002629	x1 = 0.00391	x1 = 0.005531
293.15 K	1.048	1.056	1.072	1.099	1.141	1.192
298.15 K	0.933	0.94	0.956	0.98	1.018	1.065
303.15 K	0.838	0.845	0.859	0.882	0.917	0.96
308.15 K	0.758	0.764	0.778	0.799	0.832	0.872
313.15 K	0.69	0.696	0.709	0.729	0.76	0.798

Cc1ccc(O)cc1 + CC(=O)O
viscosity [mPa·s], 101 kPa
Conditions	x2 = 0.1682	x2 = 0.3128	x2 = 0.4383	x2 = 0.5483	x2 = 0.6454	x2 = 0.732	x2 = 0.8094	x2 = 0.8792	x2 = 0.9425
298.15 K	9.47	6.803	5.096	3.918	3.086	2.477	2.038	1.664	1.385
308.15 K	5.756	4.488	3.585	2.902	2.385	1.99	1.674	1.4	1.18
318.15 K	4.584	3.69	3.009	2.473	2.051	1.72	1.447	1.215	1.004

Cc1ccc(O)cc1 + CS(C)=O
viscosity [mPa·s], 101 kPa
Conditions	x1 = 0.0702	x1 = 0.1453	x1 = 0.2257	x1 = 0.3119	x1 = 0.4047	x1 = 0.505	x1 = 0.5778	x1 = 0.7312	x1 = 0.8595
303.15 K	2.036	2.307	2.913	3.456	4.277	5.056	6.524	7.908	9.499
308.15 K	1.792	2.04	2.565	3.062	3.709	4.324	5.403	6.543	7.655
313.15 K	1.604	1.833	2.293	2.698	3.24	3.769	4.649	5.745	6.083
318.15 K	1.476	1.668	2.054	2.417	2.857	3.328	4.01	4.945	5.111

NCCCO + CC(C)CO
293.15 K, 101 kPa
Conditions	viscosity [mPa·s]
x1 = 0.501	13.95
x1 = 0.7008	21.85

Cc1ccccc1N + NCCO
viscosity [mPa·s], 100 kPa
Conditions	x1 = 0.0997	x1 = 0.1749	x1 = 0.2629	x1 = 0.3629	x1 = 0.4797	x1 = 0.5707	x1 = 0.6849	x1 = 0.7826	x1 = 0.8935
303.15 K	13.32	12.49	11.51	10.39	9.093	8.076	6.799	5.704	4.459
308.15 K	11.11	10.42	9.62	8.704	7.633	6.796	5.745	4.842	3.815
313.15 K	9.063	8.521	7.884	7.159	6.309	5.646	4.812	4.095	3.278
318.15 K	7.032	6.632	6.161	5.624	4.994	4.503	3.884	3.352	2.744

ClC(Cl)(Cl)c1ccccc1 + CC(Cl)(Cl)Cl
298.15 K, 101.33 kPa
Conditions	viscosity [mPa·s]
x2 = 0.157	1.93
x2 = 0.295	1.72
x2 = 0.423	1.532
x2 = 0.54	1.367
x2 = 0.647	1.222
x2 = 0.746	1.096
x2 = 0.837	0.9829
x2 = 0.921	0.8849

From the CheMixHub viscosity set
